According to patent US4988681A, “Phosphinic acid derivatives” (Banyu Pharmaceutical Co., Ltd., priority 1988, dated 1991):

Tests used:
[1] = Effect on urinary recovery of carbapenem (imipenem) in rats; format: in vivo, Male SD rats; conditions: urine up to 8 hours, n = 3
Procedure: (2) Effect on urinary recovery of carbapenem
Male SD rats (8 week-old) were grouped, three per group. Imipenem alone was intravenously administered in a dose of 10 mg/kg to a first group. […] For comparison, a combination of imipenem (10 mg/kg) and cilastatin (10 mg/kg) was intravenously administered to a fourth group.
The urinary recovery of imipenem was calculated.

[2] = Pharmacokinetic evaluation: plasma concentration in dogs; format: in vivo, Male beagle dogs; conditions: dog; for concentration at 0.5 h: 1/2 h; for concentration at 0.25 h: 1/4 h; for concentration at 5 min: 1/12 h; for AUC: trapezoidal rule
Procedure: Male beagle dogs (14 month-old) were divided into groups each having three animals. The compound No. 2 was administered intravenously to a first group in a dose of 10 mg/kg. The compound No. 2 was orally administered to a second group in a dose of 10 mg/kg. Then at the points of 1/12, 1/4, 1/2, 1, 2, 4, 6, 8, 24 and 48 hours after the administration, plasma samples were taken periodically from the cephalic vein, and the plasma concentrations of the compounds were measured by an enzyme assay using porcine DHP-I. The results are shown in Table 4-b. The area under the curve (AUC) of the plasma level was determined according to the trapezoidal rule.

ddY mice = test: Acute toxicity test in mice; format: in vivo, Male ddY mice; conditions: 7 days
Procedure: (5) Acute toxicity test in mice
Male ddY mice (4 week-old; body weight 24-26 g) were divided into groups each consisting of 5 animals. The compound No. 2 was intravenously administered to a first group in a dose of 2,000 mg/kg. The compound No. 2 was orally administered to a second group in a dose of 4,000 mg/kg. After the administration, the incidence of death was observed over 7 days after the administration, and the results are shown in Table 5.

[3] = tested on: nephrotoxicity induced by imipenem; test: Protective action on nephrotoxicity induced by imipenem in rabbits; format: in vivo, male Japanese white rabbits; conditions: compound 150 mg/kg + imipenem 150 mg/kg
Procedure: (3) Protective action on nephrotoxicity induced by carbapenem antibiotics
Twelve male Japanese white rabbits (18 week-old; body weight 3.19-3.54 kg) were divided into three groups each consisting of 4 animals. Imipenem alone was administered in a dose of 150 mg/kg to a first group. To a second group, a combination of imipenem (150 mg/kg) and the compound No. 2 (150 mg/kg) was administered. To a third group as a control, sterilized physiological saline was administered. In all cases, the administration was effected through the auricular vein. Forty-eight hours later, a blood sample was taken from each of the animals, and the BUN and creatinine values were measured. The kidneys of the rabbits were taken and examined histopathologically.

[4] = biological target: T1, porcine kidney dehydropeptidase I (Sus scrofa, UniProt P22412); test: Inhibitory activity on porcine kidney dehydropeptidase I (DHP-I); format: biochemical; conditions: substrate glycyldehydrophenylalanine, pH 7.4, 37° C., 3 h pre-incubation; read-out: Concentration producing 50% inhibition (IC50)
T1 construct: Frozen porcine kidney cortex was homogenized; from tissue; host or cells: porcine kidney cortex
T1 sequence (P22412 17-409): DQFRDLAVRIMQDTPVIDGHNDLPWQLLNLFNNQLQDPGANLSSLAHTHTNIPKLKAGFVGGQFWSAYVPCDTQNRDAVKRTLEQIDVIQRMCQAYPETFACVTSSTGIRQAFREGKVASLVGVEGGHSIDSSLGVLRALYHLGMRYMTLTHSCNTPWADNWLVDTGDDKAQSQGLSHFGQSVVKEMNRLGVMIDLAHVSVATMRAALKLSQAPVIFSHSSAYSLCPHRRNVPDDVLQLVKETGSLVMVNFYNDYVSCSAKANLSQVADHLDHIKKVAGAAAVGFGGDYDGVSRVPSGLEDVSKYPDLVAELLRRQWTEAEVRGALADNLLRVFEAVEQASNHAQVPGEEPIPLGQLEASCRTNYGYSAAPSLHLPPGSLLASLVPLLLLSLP
Procedure: (1) Inhibitory activity on porcine kidney dehydropeptidase I
(i) Purification of porcine dehydropeptidase I
Frozen porcine kidney cortex was homogenized. Butanol (1/4 volume) pre-cooled in a dry ice-acetone bath was added to the homogenate, and the mixture was stirred at 4° C. for 43 hours. The mixture was then dialyzed for one day and centrifuged at 3,000 g for 30 minutes. To the resulting supernatant was added ammonium sulfate. A precipitate at the salt concentration range between 50 and 75% was collected to give a crude enzyme preparation which was re-dissolved in a 50 mM MOPS buffer containing 0.5 M NaCl. The solution was charged on a cilastatin affinity column. Elution with a 50 mM MOPS buffer containing 0.5 M NaCN gave a purified enzyme preparation.
(ii) Measurement of inhibitory activity
The resulting enzyme preparation (3 mU) and an inhibitor were pre-incubatedat 37° C. for 3 hours in 2.7 ml of a 50 mM MOPS buffer (pH 7.4), and then 2.475 ml of the mixture was transferred into a cuvette. As a substrate, 25 microliters of a 5 mM glycyldehydrophenylalanine solution in a 50 mM MOPS buffer (pH 7.4) was added to start an enzymic reaction. The reaction was carried out at 37° C. in a spectrophotometer fitted with a constant-emperature device, and a decrease of the absorbance at 275 nm during a period of 5 minutes was measured. […] An IC50 value was calculated from the percent inhibition data.
One unit (U) is defined as the amount of the enzyme which hydrolyzes 1 micromole of the substrate (glycyldehydrophenylalanine) per minute at a substrate concentration of 0.05 mM at 37° C. in a 50 mM MOPS buffer (pH 7.4).

With `CC(C)CP(=O)(O)C/C(=C\C1CCCCC1)C(=O)O` [Compound No. 2, (Z)-3-cyclohexyl-2-(hydroxyisobutylphosphinoyl)methylpropenoic acid] the “Urinary recovery of imipenem, Mean ± S.D.” value ([1]; inhibitor 10 mg/kg iv with imipenem 10 mg/kg iv) was 95.3 ± 6.1%, the “Urinary recovery of imipenem, Mean ± S.D.” value ([1]; inhibitor 10 mg/kg po 30 minutes before imipenem 10 mg/kg iv) was 52.1 ± 4.9% and the concentration at 0.5 h ([2]; iv 10 mg/kg) was 52200 ng/mL. It also gave a concentration at 0.25 h ([2]; iv 10 mg/kg) of 71000 ng/mL, a concentration at 5 min ([2]; iv 10 mg/kg) of 87300 ng/mL and a concentration at 1 h ([2]; iv 10 mg/kg) of 40800 ng/mL. The concentration at 2 h ([2]; iv 10 mg/kg) was 24500 ng/mL, the concentration at 4 h ([2]; iv 10 mg/kg) was 6700 ng/mL and the concentration at 6 h ([2]; iv 10 mg/kg) was 2400 ng/mL. It also gave a concentration at 8 h ([2]; iv 10 mg/kg) of 1200 ng/mL, a concentration at 24 h ([2]; iv 10 mg/kg) of 100 ng/mL and an AUC ([2]; iv 10 mg/kg) of 144000 ng·h/mL. For the same compound, the concentration at 0.5 h ([2]; po 10 mg/kg) was 5800 ng/mL, the concentration at 0.25 h ([2]; po 10 mg/kg) was 3000 ng/mL and the concentration at 5 min ([2]; po 10 mg/kg) was 500 ng/mL. The concentration at 1 h ([2]; po 10 mg/kg) was 9600 ng/mL, the concentration at 2 h ([2]; po 10 mg/kg) was 7800 ng/mL and the concentration at 4 h ([2]; po 10 mg/kg) was 3100 ng/mL. It also gave a concentration at 6 h ([2]; po 10 mg/kg) of 1600 ng/mL, a concentration at 8 h ([2]; po 10 mg/kg) of 700 ng/mL and a concentration at 24 h ([2]; po 10 mg/kg) of 700 ng/mL. For the same compound, the AUC ([2]; po 10 mg/kg) was 51500 ng·h/mL, the “Mortality, number of dead mice versus number of mice tested” value (ddY mice; i.v. 2,000 mg/kg) was 0/5 and the “Mortality, number of dead mice versus number of mice tested” value (ddY mice; p.o. 4,000 mg/kg) was 0/5. The “Necrosis of the kidney tissue, number of rabbits which necrotized versus number tested” value [3] was 0/4, the BUN ([3]; auricular vein, 48 hours) was 16.2 mg/100 ml and the Creatinine ([3]; auricular vein, 48 hours) was 1.49 mg/dL. The “Necrosis of the kidney tissue” value ([3]; grade in words) was “None” and the IC50 [4] was 13 nM.
